Common to all, as to type: cell-based
Assay [1] addresses T1, Human P2X1 receptor (P2X1R) (Homo sapiens, UniProt P51575).
T1 construct: expressed in transfected cells; host or cells: HEK-293
T1 sequence (P51575 1-399): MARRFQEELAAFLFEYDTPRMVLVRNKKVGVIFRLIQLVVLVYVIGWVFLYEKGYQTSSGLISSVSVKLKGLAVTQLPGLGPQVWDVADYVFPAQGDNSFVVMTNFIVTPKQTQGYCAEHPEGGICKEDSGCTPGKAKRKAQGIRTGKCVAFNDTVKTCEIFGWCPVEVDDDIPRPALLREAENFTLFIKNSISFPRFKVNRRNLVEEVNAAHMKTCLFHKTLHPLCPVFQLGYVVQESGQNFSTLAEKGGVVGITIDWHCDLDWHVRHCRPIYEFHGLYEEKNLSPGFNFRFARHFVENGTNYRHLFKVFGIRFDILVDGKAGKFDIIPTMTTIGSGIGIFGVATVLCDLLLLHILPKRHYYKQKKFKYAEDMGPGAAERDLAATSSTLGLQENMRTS
Briefly: Receptor-mediated calcium entrance assay (Calcium Assay), P2X1R transfected HEK-293 cells. To be noted: HEK293, compound at 5 μM, ATP 20 μM stimulus, read-out: Percentage of activity remains in the presence of the compound at 5 μM, P2X1R (Calcium Assay). From the text: (§1) Human P2X1 receptor (P2X1R) is a member of P2X family. […] Thus, the calcium assay was used. In the calcium assay, P2X receptor activation leads to opening of ion channels, which increases intracellular calcium concentration. The increased intracellular calcium concentration can be detected by a calcium indicator dye such as Fluo-4 or Fluo-8. Molecular Probes™ Fluo-4, AM (Cat. No. F14201 from Fisher Scientific) was used in the assay. The procedures were similar as described in the Yo-Pro-1 assay until day 4. The construct of P2X1R for transient transfection to HEK-293 cells was the courtesy from Dr. Richard J. Evans laboratory (J. Biol. Chem. 279:9043-9055). After transfection and expression, on day 4 cells were washed twice by Ca-HBSS (The composition (in mM) was NaCl 135, HEPES 10, D-glucose 10, KCl 5.4, CaCl2 2, and MgCl2 1, pH to 7.4 by NaOH) and incubated in dye loading solution (The solution contained 2.5 μM Fluo-4, 1 mM probenecid, and 1× PowerLoad (Cat. No. P10020 from Fisher Scientific) in Ca-HBSS) for 70 minutes at 37° C. Then the extracellular loading dye was washed away and cells were incubated at Ca-HBSS containing 1 mM probenecid for 30 minutes. Before the final steps, probenecid was washed away with Ca-HBSS. The assay was performed by adding 25 μl of Ca-HBSS followed by 25 μl of various test compounds. At this point, the base level of fluorescence was obtained through the microplate reading—the base microplate reading for this assay. At the end, the stimulus (ATP at 20 μM was the final concentration for P2X1R) was added to activate the P2X1R. Activation of P2X1R opened the channel to allow influx of calcium, which was represented by fluorescence increases that were measured by the microplate device with excitation at 475 nm and emission wavelength in the range of 500-550 nm. The data were analyzed the same way as described before: The result of each well was first normalized by its corresponding base microplate reading. Then, the negative control signal was subtracted from. In the negative control, the test compound and the stimulus were replaced by Ca-HBSS. […] An average of six highest values of the plate (AVG) were considered as 100% and the value of each well was divided by AVG and presented as the relative values in percentages.

For the next assay, the target named is T2, P2X2R (Homo sapiens, UniProt Q9UBL9).
T2 construct: expressed in transfected cells; host or cells: HEK-293
T2 sequence (Q9UBL9 1-471): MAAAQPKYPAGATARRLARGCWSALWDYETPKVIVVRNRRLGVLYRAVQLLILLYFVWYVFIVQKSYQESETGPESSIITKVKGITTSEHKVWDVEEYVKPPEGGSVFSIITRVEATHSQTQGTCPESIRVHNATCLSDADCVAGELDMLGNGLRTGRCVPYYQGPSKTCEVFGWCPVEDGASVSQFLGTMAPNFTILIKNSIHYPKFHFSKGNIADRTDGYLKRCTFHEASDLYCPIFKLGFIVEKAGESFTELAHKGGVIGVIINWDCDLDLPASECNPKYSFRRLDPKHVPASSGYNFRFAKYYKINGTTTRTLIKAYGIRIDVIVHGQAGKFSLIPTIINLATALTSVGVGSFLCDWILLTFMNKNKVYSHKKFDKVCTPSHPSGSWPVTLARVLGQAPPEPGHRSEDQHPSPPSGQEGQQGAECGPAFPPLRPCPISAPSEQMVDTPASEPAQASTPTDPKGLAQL
As to the kind of experiment: Receptor-mediated calcium entrance assay (Calcium Assay), P2X2R. The conditions noted are these: compound at 5 μM, read-out: Percentage of activity remains in the presence of the compound at 5 μM, P2X2R (Calcium Assay).

Assay [2] has as its target T3, Human P2X4 receptor (P2X4R) (Homo sapiens, UniProt Q99571).
T3 construct: expressed in transfected cells; host or cells: HEK-293
T3 sequence (Q99571 1-388): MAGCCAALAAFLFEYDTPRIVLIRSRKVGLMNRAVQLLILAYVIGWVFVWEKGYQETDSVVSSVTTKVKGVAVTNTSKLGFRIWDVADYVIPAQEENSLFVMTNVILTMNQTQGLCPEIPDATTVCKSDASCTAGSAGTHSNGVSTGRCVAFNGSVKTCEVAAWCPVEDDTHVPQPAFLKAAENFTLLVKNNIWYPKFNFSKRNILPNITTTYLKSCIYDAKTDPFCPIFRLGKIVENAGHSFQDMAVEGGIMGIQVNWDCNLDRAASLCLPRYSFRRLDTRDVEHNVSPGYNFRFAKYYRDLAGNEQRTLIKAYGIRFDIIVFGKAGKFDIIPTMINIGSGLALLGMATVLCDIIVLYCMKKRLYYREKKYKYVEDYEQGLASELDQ
As to the kind of experiment: Receptor-mediated calcium entrance assay (Calcium Assay), P2X4R transfected HEK-293 cells. The conditions noted are these: HEK293, compound at 5 μM, 1 mM ATP stimulus, read-out: Percentage of activity remains in the presence of the compound at 5 μM, P2X4R (Calcium Assay).
From the text: as §1
Human P2X4 receptor (P2X4R) construct (J. Biol. Chem. 290, 7930-7942) was transiently transfected to HEK-293 cells and the calcium assay was performed as described above. When 1 mM ATP was used as stimulus, an increased receptor mediated activity leading to intracellular calcium elevation can be seen in less than 10 minutes.

Structures can show the parent of a compound that is named as a salt.

Turning to `CCCCNc1ccc(S(=O)(=O)N2CCC(C(=O)O)CC2)cc1` [#27], the remaining activity at 5 µM in assay [1] is 50.8%; at P2X2R, 67.2%; in assay [2] it was 59.9%.
The corresponding values for `NC(=O)c1cc(Br)cc(N2CCOCC2)c1` [#28] are 62.6%, 50.7% and 85.4%.
As to `O=C(CCc1ccccc1)N1CCNCC1` [#29, hydrochloride], the remaining activity at 5 µM in assay [1] worked out at 62.5%; on P2X2R, 83.3%; in assay [2], 67.1%.
The corresponding values for `O=C(CCc1ccccc1)N1CCN(S(=O)(=O)c2ccc(F)cc2)CC1` [#30] are 70.1%, 67.5% and 76.8%.
The corresponding values for `CC(C)(C)OC(=O)N1CCN(c2ccc(S(=O)(=O)N3CCN(C(=O)CCc4ccccc4)CC3)cc2)CC1` [#31] are 43.9%, 78.3% and 81.8%.
With `O=C(CCc1ccccc1)N1CCN(S(=O)(=O)c2ccc(N3CCOCC3)cc2)CC1` [#32], the remaining activity at 5 µM in assay [1] turned out to be 46.7%; on P2X2R, 47.8%; in assay [2], 91%.
Regarding `O=C(CCc1ccccc1)N1CCN(S(=O)(=O)c2ccc(NC3CCCCC3)cc2)CC1` [#33], the remaining activity at 5 µM stood at 44.9% in assay [1], 83.6% on P2X2R and 83.9% in assay [2].
The corresponding values for `O=C(CCc1ccccc1)N1CCN(S(=O)(=O)c2ccc(N3CCCCC3)cc2)CC1` [#34] are 59.3%, 65.2% and 53.8%.
Take `O=C(CCc1ccccc1)N1CCN(S(=O)(=O)c2ccc(N3CCCC3)cc2)CC1` [#35]: the remaining activity at 5 µM turned out to be 56.3% in assay [1], 43.7% at P2X2R and 70.7% in assay [2].
Regarding `CC(C)(C)OC(=O)N1CCN(c2ccc(S(=O)(=O)N3CCCC(C(=O)NCCc4ccccc4)C3)cc2)CC1` (stereo not drawn) [#36], the remaining activity at 5 µM in assay [1] turned out to be 49%; at P2X2R, 49.4%; in assay [2], 72.2%.
The corresponding values for `CCOc1ccc(S(=O)(=O)N2CCCC(NC(=O)CCc3ccccc3)C2)cc1` (stereo not drawn) [#37] are 55.4%, 90.3% and 54.8%.
`O=C(CCc1ccccc1)NC1CCCN(S(=O)(=O)c2ccc(N3CCC(Oc4ccccc4)CC3)cc2)C1` (stereo not drawn) [#38]: the remaining activity at 5 µM in assay [1] was determined as 43.8%; at P2X2R it was 52.2%; in assay [2], 71.1%.
The corresponding values for `CC(C)OC1CCN(c2ccc(S(=O)(=O)N3CCCC(NC(=O)CCc4ccccc4)C3)cc2)CC1` (stereo not drawn) [#39] are 74.5%, 86.6% and 68.2%.
`CC1CCN(c2ccc(S(=O)(=O)N3CCCC(NC(=O)CCc4ccccc4)C3)cc2)CC1` (stereo not drawn) [#40]: the values for the remaining activity at 5 µM (in assay [1]; on P2X2R; in assay [2]) were 39%, 73.5% and 62.9%, respectively.
The corresponding values for `CC(C)(C)OC(=O)N1CCC(C2CCN(c3ccc(S(=O)(=O)N4CCCC(NC(=O)CCc5ccccc5)C4)cc3)CC2)CC1` (stereo not drawn) [#41] are 46.7%, 61.1% and 39.9%.
On to `O=C(CCc1ccccc1)NC1CCCN(S(=O)(=O)c2ccc(N3CCC(C(F)(F)F)CC3)cc2)C1` (stereo not drawn) [#42], for which the remaining activity at 5 µM in assay [1] was 66.3%; at P2X2R, 62.7%; in assay [2], 55.8%.
`O=C(CCc1ccccc1)NC1CCCN(S(=O)(=O)c2ccc(F)c(Cl)c2)C1` (stereo not drawn) [#43]: the results for the remaining activity at 5 µM (in assay [1]; at P2X2R; in assay [2]) were 57.1%, 56% and 48.4%, respectively.
Turning to `CC1CCCN(c2ccc(S(=O)(=O)N3CCCC(NC(=O)CCc4ccccc4)C3)cc2)C1` (stereo not drawn) [#44], the results for the remaining activity at 5 µM (in assay [1]; on P2X2R; in assay [2]) were 40.5%, 83% and 63.5%, respectively.
The corresponding values for `O=C(CCc1ccccc1)NC1CCCN(S(=O)(=O)c2ccc(N3CCCCC3)c(Cl)c2)C1` (stereo not drawn) [#45] are 52%, 49.4% and 61.9%.
The corresponding values for `O=C(CCc1ccccc1)NC1CCCN(S(=O)(=O)c2ccc(N3CCC(F)(F)CC3)cc2)C1` (stereo not drawn) [#46] are 67.7%, 71% and 75%.
Take `CC1CCCCN1c1ccc(S(=O)(=O)N2CCCC(NC(=O)CCc3ccccc3)C2)cc1` (stereo not drawn) [#47]: the remaining activity at 5 µM in assay [1] was 50.1%; at P2X2R, 65.6%; in assay [2], 93.3%.
As to `CC(C)N(C(C)C)S(=O)(=O)c1ccc(N2CCCC(NC(=O)CCc3ccccc3)C2)cc1` (stereo not drawn) [#49], the values for the remaining activity at 5 µM (in assay [1]; at P2X2R; in assay [2]) were 65.8%, 82.6% and 35.3%, respectively.
With `O=C(CCc1ccccc1)NC1CCCN(c2ccc(S(=O)(=O)Nc3ccccc3)cc2)C1` (stereo not drawn) [#50], the remaining activity at 5 µM in assay [1] was 47.8%; on P2X2R it was 67.2%; in assay [2] it was 84.3%.
The corresponding values for `O=C(CCc1ccccc1)NC1CCCN(c2ccc(S(=O)(=O)NC3CCCCC3)cc2)C1` (stereo not drawn) [#51] are 63.1%, 81.2% and 71.3%.
For `O=C(CCc1ccccc1)NC1CCCN(c2ccc(S(=O)(=O)NCc3ccco3)cc2)C1` (stereo not drawn) [#52], the results for the remaining activity at 5 µM (in assay [1]; at P2X2R; in assay [2]) were 63.4%, 72.3% and 52.8%, respectively.
The corresponding values for `NS(=O)(=O)c1ccc(N2CCCC(NC(=O)CCc3ccccc3)C2)cc1` (stereo not drawn) [#53] are 66.2%, 58% and 49.7%.

These data come from patent US20220380310A1, “P2X7R ANTAGONISTS” (priority 2019, published 2022).
